{"source": "patent US7833736B2", "about": "“Protein markers of responsiveness to type III receptor tyrosine kinase inhibitors” (Cell Signaling Technology, Inc., priority 2006, dated 2010)", "tested_on": "human tumor xenografts", "test": "Growth of human tumor xenografts under OSI-930 (growth curves of xenograft tumor mass)", "assay_type": "in vivo, mice", "data": [{"compound": "O=C(Nc1ccc(OC(F)(F)F)cc1)c1sccc1NCc1ccnc2ccccc12", "note": "[OSI-930]", "values": [{"measurement": "response of xenograft tumor growth to the drug (growth curves of tumor mass)", "setting": "five of the cell line xenograft models, data not shown", "result": "resistant"}, {"measurement": "response of xenograft tumor growth to the drug (growth curves of tumor mass)", "setting": "the other seven cell line xenograft models", "result": "significant inhibition of tumor growth"}]}]}
